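Grown in 96-well plates, cells were treated for 48 hours with each compound at five concentrations. Insufficient inhibition: endpoint recorded as highest concentration tested. GI50 is the concentration that inhibits growth by half.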 Activity calls are given as the source filed them. No stated cut-off is given here; in the data, active = GI50 up to about 1.1 µM and inactive = higher.
Key:
Assay in all cases: NCI anticancer screen, dose series, 48 h
OVCAR-8 = tested on: OVCAR-8
OVCAR-3 = tested on: OVCAR-3
SW-620 = tested on: SW-620
SR = tested on: SR
CCRF-CEM = tested on: CCRF-CEM
NCI-H226 = tested on: NCI-H226
EKVX = tested on: EKVX
SF-539 = tested on: SF-539
HL-60 = tested on: HL-60
SF-295 = tested on: SF-295
ACHN = tested on: ACHN
NCI-H460 = tested on: NCI-H460
MOLT-4 = tested on: MOLT-4
SK-MEL-5 = tested on: SK-MEL-5
K562 = tested on: K562
A498 = tested on: A498

Measured: GI50

Nc1nc(O)c2c(ncn2CCO)n1
inactive: OVCAR-8 > 100 µM | OVCAR-3 > 100 µM | SW-620 > 100 µM | SR > 100 µM | CCRF-CEM > 100 µM | NCI-H226 > 100 µM | EKVX > 100 µM | SF-539 > 100 µM | HL-60 > 100 µM | SF-295 > 100 µM | ACHN > 100 µM | NCI-H460 > 100 µM | MOLT-4 > 100 µM

NC1=NS(=O)(=O)Nc2nc(-c3ccccc3)c(-c3ccccc3)nc21
inactive: OVCAR-8 > 100 µM | OVCAR-3 > 100 µM | SW-620 > 100 µM | SR > 100 µM | CCRF-CEM > 100 µM | NCI-H226 > 100 µM | EKVX > 100 µM | SF-539 > 100 µM | HL-60 > 100 µM | SF-295 > 100 µM | SK-MEL-5 > 100 µM | ACHN > 100 µM | K562 > 100 µM | NCI-H460 > 100 µM | MOLT-4 > 100 µM

O=c1c2cccnc2ncn1CCN1CCCCC1
inactive: OVCAR-8 > 100 µM | OVCAR-3 > 100 µM | SW-620 > 100 µM | SR > 100 µM | CCRF-CEM > 100 µM | NCI-H226 > 100 µM | EKVX > 100 µM | SF-539 > 100 µM | SF-295 > 100 µM | SK-MEL-5 > 100 µM | ACHN > 100 µM | K562 > 100 µM | NCI-H460 > 100 µM | MOLT-4 > 100 µM

CC(C)(C)c1cc2c3c(c1)C(C(F)(F)F)(C(F)(F)F)O[Te]3(C)OC2(C(F)(F)F)C(F)(F)F
inactive: OVCAR-8 > 10 µM | OVCAR-3 > 100 µM | SW-620 > 100 µM | SR > 100 µM | CCRF-CEM > 100 µM | NCI-H226 > 100 µM | EKVX > 100 µM | SF-539 > 100 µM | HL-60 > 100 µM | SF-295 > 100 µM | ACHN > 100 µM | K562 > 100 µM | NCI-H460 > 100 µM | MOLT-4 > 100 µM

COC(=O)/C(C#N)=C1\CCc2ccccc21
inactive: OVCAR-8 > 100 µM | OVCAR-3 > 100 µM | A498 > 100 µM | SW-620 > 100 µM | CCRF-CEM > 100 µM | NCI-H226 > 100 µM | EKVX > 100 µM | SF-539 > 100 µM | HL-60 > 100 µM | SF-295 > 100 µM | SK-MEL-5 > 100 µM | ACHN > 100 µM | K562 > 100 µM | NCI-H460 > 100 µM | MOLT-4 > 100 µM

CC1NS(=O)(=O)N(C)C1=O (centres undefined)
inactive: OVCAR-8 > 100 µM | OVCAR-3 > 100 µM | SW-620 > 100 µM | SR > 100 µM | CCRF-CEM > 100 µM | NCI-H226 > 100 µM | SF-539 > 100 µM | HL-60 > 100 µM | SF-295 > 100 µM | SK-MEL-5 > 100 µM | ACHN > 100 µM | K562 > 100 µM | MOLT-4 > 100 µM

CC(C(=O)c1ccc(O)cc1)C1(O)C(=O)Nc2c(Cl)cc(Cl)cc21 (centres undefined)
inactive: OVCAR-8 46.3 µM | OVCAR-3 31.6 µM | A498 > 49.1 µM | SW-620 32.9 µM | CCRF-CEM 26.6 µM | NCI-H226 19.1 µM | EKVX 49.3 µM | SF-539 51.2 µM | HL-60 20.9 µM | SF-295 45.4 µM | SK-MEL-5 17.1 µM | ACHN 16.6 µM | K562 2.56 µM | NCI-H460 > 86.1 µM | MOLT-4 28.9 µM

COC(=O)C(=C\Sc1ccccc1)/C=C/C(=O)OC(C)(C)C
inactive: OVCAR-8 15.3 µM | OVCAR-3 5.25 µM | SW-620 3.8 µM | SR 2.87 µM | CCRF-CEM 1.89 µM | NCI-H226 15.6 µM | EKVX 10.6 µM | SF-539 13.6 µM | HL-60 1.48 µM | SF-295 17.4 µM | SK-MEL-5 15 µM | ACHN 7.23 µM | K562 3.01 µM | NCI-H460 17.7 µM | MOLT-4 2.84 µM

COc1cc(CNc2cnc3cc(N)ccc3n2)cc(OC)c1OC
inactive: OVCAR-8 37.4 µM | OVCAR-3 12.6 µM | A498 26.5 µM | SW-620 20 µM | SR 5.65 µM | CCRF-CEM 31.4 µM | EKVX 76.7 µM | SF-539 19.4 µM | HL-60 7.21 µM | SF-295 17.3 µM | SK-MEL-5 14.9 µM | ACHN 66.1 µM | K562 5.53 µM | NCI-H460 30.8 µM | MOLT-4 15.9 µM

COc1ccc2nc3c(C(=O)NCCN(C)C)cccc3nc2c1
inactive: OVCAR-8 5.16 µM | OVCAR-3 10.2 µM | A498 1.84 µM | SW-620 3.1 µM | CCRF-CEM 5.55 µM | NCI-H226 6.85 µM | EKVX 3.86 µM | SF-539 2.51 µM | HL-60 4.23 µM | SF-295 6.41 µM | SK-MEL-5 4.31 µM | ACHN 3.94 µM | K562 5 µM | MOLT-4 3.63 µM

N#Cc1c2nc3ccccc3nc2n2ccccc12
inactive: OVCAR-8 > 100 µM | OVCAR-3 > 100 µM | A498 76 µM | SW-620 > 100 µM | SR > 100 µM | CCRF-CEM > 100 µM | EKVX > 100 µM | SF-539 > 100 µM | HL-60 > 100 µM | SK-MEL-5 > 100 µM | ACHN > 100 µM | K562 > 100 µM | NCI-H460 > 100 µM | MOLT-4 > 100 µM

CCOC(=O)CN.CCOC(=O)Nc1ccc(S(=O)(=O)OC)cc1.CCOC(=O)Nc1ccc(S(=O)(=O)OC)cc1
inactive: OVCAR-8 > 50 µM | OVCAR-3 > 50 µM | A498 > 50 µM | SW-620 7.83 µM | CCRF-CEM > 50 µM | NCI-H226 > 50 µM | EKVX > 50 µM | SF-539 > 50 µM | HL-60 > 50 µM | SF-295 > 50 µM | SK-MEL-5 > 50 µM | ACHN > 50 µM | K562 > 50 µM | NCI-H460 17.8 µM | MOLT-4 > 50 µM

C#CCOCn1cnc2c(Sc3c([N+](=O)[O-])ncn3C)ncnc21
inactive: OVCAR-8 > 100 µM | OVCAR-3 > 100 µM | A498 > 100 µM | SW-620 > 100 µM | CCRF-CEM 97.7 µM | NCI-H226 > 100 µM | EKVX > 100 µM | HL-60 > 100 µM | SF-295 > 100 µM | SK-MEL-5 > 100 µM | ACHN > 100 µM | K562 > 100 µM | NCI-H460 > 100 µM

Cc1ccc(O)c(C(=O)CCCC(=O)c2cc(C)ccc2O)c1
inactive: OVCAR-8 > 100 µM | A498 > 100 µM | SW-620 30.2 µM | CCRF-CEM > 100 µM | NCI-H226 > 100 µM | EKVX > 100 µM | SF-539 > 100 µM | HL-60 27.4 µM | SF-295 > 100 µM | SK-MEL-5 > 100 µM | ACHN > 100 µM | K562 35 µM | NCI-H460 > 100 µM | MOLT-4 > 100 µM

Reference: ChEMBL document CHEMBL1201862, “PubChem BioAssay data set” (2004)
